Reference: ChEMBL document CHEMBL1124563, “On the structure selectivity problem in drug design. A comparative study of benzylpyrimidine inhibition of vertebrate and bacterial dihydrofolate reductase via molecular graphics and quantitative structure-activity relationships” (J Med Chem, 1989)
pKi: −log10 of the molar value.

Key:
[1] = Partition coefficient (logD) (aqueous phase 0.1 N HCl)
[2] = Partition coefficient (logD) (0.01 N NaOH); assay type: physicochemical
Dihydrofolate reductase [3] = target: T1, Dihydrofolate reductase (Gallus gallus, UniProt P00378)
T1 sequence (P00378 whole entry): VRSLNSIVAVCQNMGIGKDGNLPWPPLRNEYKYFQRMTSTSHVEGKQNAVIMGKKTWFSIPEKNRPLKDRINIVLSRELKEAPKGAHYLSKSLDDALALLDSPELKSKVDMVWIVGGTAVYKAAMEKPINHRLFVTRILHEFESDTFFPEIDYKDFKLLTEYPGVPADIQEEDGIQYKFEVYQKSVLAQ
Description: Inhibitory activity against chicken liver dihydrofolate reductase

Dihydrofolate reductase [4] = target: Dihydrofolate reductase (Lactobacillus casei, UniProt P00381)
Sequence of Dihydrofolate reductase (Lactobacillus casei, UniProt P00381) (P00381 whole entry): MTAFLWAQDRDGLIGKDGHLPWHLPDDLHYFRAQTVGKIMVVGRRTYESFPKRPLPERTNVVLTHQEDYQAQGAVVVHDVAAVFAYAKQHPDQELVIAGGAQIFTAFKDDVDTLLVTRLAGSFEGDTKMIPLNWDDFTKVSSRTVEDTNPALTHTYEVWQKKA
Description: Inhibitory activity against Lactobacillus casei dihydrofolate reductase

[5] = Toxic index against Dihydrofolate reductase; assay type: ADME

| logD ([1]; 0.1 N HCl (aqueous phase)) | logD ([2]; 0.01 N NaOH, read-out: logD) | pKi (Dihydrofolate reductase [3]) | pKi (Dihydrofolate reductase [4]) | SMILES | also measured |
| --- | --- | --- | --- | --- | --- |
|  | 0.22 |  |  | Nc1ccc(Cc2cnc(N)nc2N)cc1 |  |
|  |  | 4.32 |  | Nc1ncc(Cc2ccc(OC(F)(F)F)cc2)c(N)n1 |  |
|  | 2.66 | 4.72 | 6.50 | COc1cc(Cc2cnc(N)nc2N)ccc1OCc1ccccc1 |  |
| -0.18 |  |  | 7.10 | COc1ccc(Cc2cnc(N)nc2N)cc1C(F)(F)F |  |
| 2.08 |  |  |  | Nc1ncc(Cc2ccc(O)c(O)c2)c(N)n1 |  |
|  | 2.44 | 4.74 | 6.91 | COc1ccc(Cc2cnc(N)nc2N)cc1OCc1ccccc1 |  |
| -1.92 |  | 4.53 | 6.67 | COc1ccc(Cc2cnc(N)nc2N)cc1OS(C)(=O)=O |  |
| -1.34 |  |  |  | Nc1ncc(Cc2cccc(O)c2)c(N)n1 |  |
|  |  | 4.77 | 5.70 | CCCCCCCCOc1c(OC)cc(Cc2cnc(N)nc2N)cc1OC |  |
|  |  |  | 5.87 | Cc1cc(C)cc(Cc2cnc(N)nc2N)c1 |  |
| -1.47 |  | 4.17 | 6.38 | Nc1ncc(Cc2ccc(O)cc2)c(N)n1 |  |
| -1.87 |  | 4.19 | 6.54 | COCCOc1ccc(Cc2cnc(N)nc2N)cc1OC |  |
| -2.17 |  | 3.46 | 6.82 | CCc1cc(Cc2cnc(N)nc2N)cc(NC(C)=O)c1CO | Toxicity index [5]: 3.36 |
|  |  | 4.14 | 6.41 | CCOc1cc(Cc2cnc(N)nc2N)cc(OCC)c1 |  |
|  |  | 4.15 | 6.45 | COc1cc(Cc2cnc(N)nc2N)cc(OC)c1N(C)C [ADITOPRIM] |  |
|  | 2.01 |  | 7.28 | COc1cc(Cc2cnc(N)nc2N)cc(OC)c1Br [BRODIMOPRIM] |  |
|  | 1.54 |  | 7.25 | COc1cc(Cc2cnc(N)nc2N)cc(OC)c1SC [METIOPRIM] |  |

The remaining lines, values behind:

| SMILES | logD ([1]; 0.1 N HCl (aqueous phase)) | logD ([2]; 0.01 N NaOH, read-out: logD) | pKi (Dihydrofolate reductase [3]) | pKi (Dihydrofolate reductase [4]) | also measured |
| --- | --- | --- | --- | --- | --- |
| CC(=O)Nc1ccc(Cc2cnc(N)nc2N)cc1[N+](=O)[O-] | -2.23 |  |  |  |  |
| COc1cccc(Cc2cnc(N)nc2N)c1 |  |  |  |  | logD ([2]; octanol/water): 1.54 |
| CCOc1cc(Cc2cnc(N)nc2N)ccc1OCc1ccccc1 | 1 |  | 4.74 | 6.51 |  |
| Nc1ncc(Cc2ccccc2)c(N)n1 |  |  |  |  | logD ([2]; octanol/water): 1.54 |
| CCCCOCc1cccc(Cc2cnc(N)nc2N)c1 |  | 2.88 |  |  |  |
| CS(=O)(=O)Oc1ccc(Cc2cnc(N)nc2N)cc1 |  | 0.6 | 4.31 | 6.49 |  |
| COCCOc1c(Cc2cnc(N)nc2N)ccc(OC)c1OC | -1.81 |  | 3.64 | 6.26 | Toxic index [5]: 2.62 |
| COc1ccc(Cc2cnc(N)nc2N)cc1O |  | 0.74 | 3.85 | 6.59 |  |
| CCCCCCCOc1ccc(Cc2cnc(N)nc2N)cc1 |  |  |  | 5.38 |  |
| COCCOc1ccc(Cc2cnc(N)nc2N)cc1OCCOC |  |  |  |  | logD ([1]; octanol/water): 1.89 |
| CCc1cc(Cc2cnc(N)nc2N)cc(CO)c1CO | -2.23 |  | 3.58 | 6.71 | Toxic index [5]: 3.13 |
| Nc1ncc(Cc2ccc(-c3ccccc3)cc2)c(N)n1 | 0.98 |  | 5.26 | 6.41 |  |
| Nc1ncc(Cc2ccc3c(c2)OCO3)c(N)n1 |  |  | 4.68 | 6.34 |  |
| Nc1ncc(Cc2ccc(OCc3ccccc3)cc2)c(N)n1 |  |  | 4.83 | 6.35 |  |
| CCCOc1cc(Cc2cnc(N)nc2N)cc(OCCC)c1 |  |  | 4.13 | 6.19 |  |
| CCCOc1cc(Cc2cnc(N)nc2N)cc(OCC)c1 |  |  | 4.36 | 6.23 |  |
| CCCCCCCCOc1cc(Cc2cnc(N)nc2N)ccc1OC | 2.54 |  | 4.71 | 6.50 |  |
| COc1cc(Cc2cnc(N)nc2N)ccc1OS(C)(=O)=O |  | 0.6 | 4.59 | 6.44 |  |
| CCc1cc(Cc2cnc(N)nc2N)cc(CC)c1CC |  |  | 5.25 | 6.88 |  |
| C=C(C)c1c(OC)cc(Cc2cnc(N)nc2N)cc1OC |  | 2.07 | 4.17 | 7.34 |  |
| COc1cc(Cc2cnc(N)nc2N)ccc1O |  | 0.64 | 4.31 | 6.47 |  |
| COc1ccc(Cc2cnc(N)nc2N)cc1OC [DIAVERIDINE] |  | 0.97 |  |  |  |
| CCOc1cc(Cc2cnc(N)nc2N)cc(OCC)c1-n1cccc1 [EPIROPRIM] |  |  | 4.33 | 7.33 |  |
